From PubChem BioAssay AID248 (DTP/NCI, 2004)
“And” between values parts separate entries of the source, which are not always exact repeats. Equal entries are not always repeated. Toxic doses and inconclusive results are not listed. No stated cut-off is given here; in the data, active means T/C of 150% or more; inactive means T/C below 125%.

System: L1210 leukemia ip in BDF1 mice, survival T/C
Experiment: NCI In Vivo Anticancer Drug Screen. Data for tumor model L1210 Leukemia (intraperitoneal) in B6D2F1 (BDF1) mice
Conditions: endpoint: mean survival time, higher = longer survival
How it was run: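 Tumor cells were implanted, animals were treated, and survival was followed. The result divides the treated measurement by the vehicle-control measurement.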

[1] = dose: 100.0 mg/kg/injection, schedule: Q01DX001 (ip), vehicle: carboxymethylcellulose (CMC)
[2] = dose: 100.0 mg/kg/injection, schedule: Q01DX001 (ip), vehicle: saline
[3] = dose: 200.0 mg/kg/injection, schedule: Q01DX001 (ip), vehicle: carboxymethylcellulose (CMC)
[4] = dose: 200.0 mg/kg/injection, schedule: Q01DX001 (ip), vehicle: saline
[5] = dose: 400.0 mg/kg/injection, schedule: Q01DX001 (ip), vehicle: carboxymethylcellulose (CMC)
[6] = dose: 400.0 mg/kg/injection, schedule: Q01DX001 (ip), vehicle: saline
[7] = dose: 50.0 mg/kg/injection, schedule: Q01DX001 (ip), vehicle: Klucel (hydroxypropylcellulose) (HPC)
[8] = dose: 50.0 mg/kg/injection, schedule: Q01DX009 (ip), vehicle: saline
[9] = dose: 100.0 mg/kg/injection, schedule: Q04DX003 (ip), vehicle: saline
[10] = dose: 100.0 mg/kg/injection, schedule: Q01DX009 (ip), vehicle: saline
[11] = dose: 200.0 mg/kg/injection, schedule: Q01DX009 (ip), vehicle: saline
[12] = dose: 25.0 mg/kg/injection, schedule: Q01DX009 (ip), vehicle: saline with Tween-80
[13] = dose: 50.0 mg/kg/injection, schedule: Q01DX009 (ip), vehicle: saline with Tween-80
[14] = dose: 100.0 mg/kg/injection, schedule: Q01DX009 (ip), vehicle: saline with Tween-80
[15] = dose: 100.0 mg/kg/injection, schedule: Q04DX003 (ip), vehicle: Klucel (hydroxypropylcellulose) (HPC)
[16] = dose: 200.0 mg/kg/injection, schedule: Q04DX003 (ip), vehicle: Klucel (hydroxypropylcellulose) (HPC)
[17] = dose: 400.0 mg/kg/injection, schedule: Q04DX003 (ip), vehicle: Klucel (hydroxypropylcellulose) (HPC)
[18] = dose: 100.0 mg/kg/injection, schedule: Q01DX009 (ip), vehicle: Klucel (hydroxypropylcellulose) (HPC)
[19] = dose: 200.0 mg/kg/injection, schedule: Q04DX003 (ip), vehicle: saline
[20] = dose: 400.0 mg/kg/injection, schedule: Q04DX003 (ip), vehicle: saline
[21] = dose: 100.0 mg/kg/injection, schedule: Q01DX001 (ip), vehicle: saline with Tween-80
[22] = dose: 10.0 mg/kg/injection, schedule: Q01DX001 (ip), vehicle: saline
[23] = dose: 20.0 mg/kg/injection, schedule: Q01DX001 (ip), vehicle: saline
[24] = dose: 40.0 mg/kg/injection, schedule: Q01DX001 (ip), vehicle: saline
[25] = dose: 400.0 mg/kg/injection, schedule: Q01DX009 (ip), vehicle: saline

Measured: T/C

COC1OC(COC(=O)c2ccc([N+](=O)[O-])cc2)C2OC12 (stereo unspecified)
inactive: [1] 100 % of control | [2] 101 % of control | [3] 95 % of control | [4] 101 % of control and 109 % of control | [5] 89 % of control | [6] 101 % of control

Cc1ccc(-n2c(O)c(N=Nc3ccc(Cl)cc3)c(=O)n(-c3ccc(Cl)cc3)c2=S)cc1
inactive: [7] 100 % of control | dose: 100.0 mg/kg/injection, schedule: Q01DX001 (ip), vehicle: Klucel (hydroxypropylcellulose) (HPC) 105 % of control | dose: 200.0 mg/kg/injection, schedule: Q01DX001 (ip), vehicle: Klucel (hydroxypropylcellulose) (HPC) 95 % of control

CC[n+]1ccc2cc(OC)c(OC)cc2c1Cc1ccc(OC)c(OC)c1
inactive: dose: 25.0 mg/kg/injection, schedule: Q01DX009 (ip), vehicle: saline 94 % of control | [8] 115 % of control | [9] 98 % of control

O=[N+]([O-])c1ccc(NCc2ccccc2)c2nonc12
inactive: [8] 113 % of control | [10] 98 % of control | [11] 113 % of control

CCCCCC(O)C(O)CC(O)C(O)CCCCCCCC(=O)O (stereo unspecified)
inactive: [2] 89 % of control | [4] 105 % of control | [6] 96 % of control

O=C(O)CSCc1ccccc1
inactive: [12] 102 % of control | [13] 95 % of control | [14] 100 % of control and 102 % of control | [15] 94 % of control | [16] 100 % of control | [17] 102 % of control

CC1CCCC/C1=N/NC(N)=O (stereo unspecified)
inactive: [18] 97 % of control | [9] 97 % of control | [19] 88 % of control | [20] 95 % of control

Cc1ccccc1C(=O)C(C#N)c1ccccc1 (stereo unspecified)
inactive: [12] 103 % of control and 92 % of control | dose: 25.0 mg/kg/injection, schedule: Q04DX003 (ip), vehicle: saline with Tween-80 98 % of control | dose: 50.0 mg/kg/injection, schedule: Q01DX001 (ip), vehicle: saline with Tween-80 95 % of control | [13] 96 % of control and 103 % of control | dose: 50.0 mg/kg/injection, schedule: Q04DX002 (ip), vehicle: saline with Tween-80 97 % of control | dose: 50.0 mg/kg/injection, schedule: Q04DX003 (ip), vehicle: saline with Tween-80 102 % of control | [21] 90 % of control | [14] 113 % of control and 118 % of control | dose: 100.0 mg/kg/injection, schedule: Q04DX002 (ip), vehicle: saline with Tween-80 93 % of control and 111 % of control and 88 % of control | dose: 200.0 mg/kg/injection, schedule: Q04DX002 (ip), vehicle: saline with Tween-80 90 % of control

COc1ccccc1CN1CCCN(Cc2ccccc2OC)C1
inactive: [1] 97 % of control | [3] 105 % of control | [5] 97 % of control

CCOC(=O)CN1N=C([P+](c2ccccc2)(c2ccccc2)c2ccccc2)CC1(c1ccccc1)c1ccccc1
inactive: [22] 95 % of control | [23] 96 % of control | [24] 86 % of control

C1=CC2C3CCC(C3)C2C1 (stereo unspecified)
inactive: [13] 96 % of control | [14] 102 % of control and 88 % of control | dose: 100.0 mg/kg/injection, schedule: Q04DX003 (ip), vehicle: saline with Tween-80 98 % of control and 101 % of control | dose: 200.0 mg/kg/injection, schedule: Q01DX009 (ip), vehicle: saline with Tween-80 94 % of control and 108 % of control | dose: 200.0 mg/kg/injection, schedule: Q04DX003 (ip), vehicle: saline with Tween-80 93 % of control and 101 % of control | dose: 400.0 mg/kg/injection, schedule: Q01DX009 (ip), vehicle: saline with Tween-80 95 % of control | dose: 400.0 mg/kg/injection, schedule: Q04DX003 (ip), vehicle: saline with Tween-80 93 % of control and 96 % of control

O=C(O)/C=C/c1c2ccc(=O)c(O)c-2oc2c(O)c(O)ccc12
inactive: dose: 10.0 mg/kg/injection, schedule: Q04DX003 (ip), vehicle: other 94 % of control | dose: 20.0 mg/kg/injection, schedule: Q04DX003 (ip), vehicle: other 98 % of control | dose: 40.0 mg/kg/injection, schedule: Q04DX003 (ip), vehicle: other 88 % of control | dose: 50.0 mg/kg/injection, schedule: Q04DX003 (ip), vehicle: other 106 % of control | dose: 80.0 mg/kg/injection, schedule: Q04DX003 (ip), vehicle: other 89 % of control | dose: 100.0 mg/kg/injection, schedule: Q04DX003 (ip), vehicle: other 107 % of control

CC(C)=NNC(=O)CC(=O)NN=C(C)C
inactive: dose: 100.0 mg/kg/injection, schedule: Q04DX003 (ip), vehicle: saline sonified 89 % of control | dose: 200.0 mg/kg/injection, schedule: Q04DX003 (ip), vehicle: saline sonified 87 % of control | dose: 400.0 mg/kg/injection, schedule: Q04DX003 (ip), vehicle: saline sonified 94 % of control

FC(F)(F)C(F)(Cl)C(Cl)(Cl)C(F)(F)F (stereo unspecified)
inactive: [10] 97 % of control | [9] 100 % of control | [11] 97 % of control | [19] 101 % of control | [25] 97 % of control | [20] 90 % of control

Cc1cc(C(=O)O)c(CO)c(=O)n1C
inactive: dose: 100.0 mg/kg/injection, schedule: Q04DX003 (ip), vehicle: water 104 % of control | dose: 200.0 mg/kg/injection, schedule: Q04DX003 (ip), vehicle: water 104 % of control | dose: 400.0 mg/kg/injection, schedule: Q04DX003 (ip), vehicle: water 94 % of control

[Cu+2].[NH-]C(CC(=O)O)C(=O)O.[NH-]C(CC(=O)O)C(=O)O (stereo unspecified)
inactive: dose: 5.0 mg/kg/injection, schedule: Q01DX001 (ip), vehicle: saline 96 % of control | [22] 96 % of control | [23] 91 % of control | [24] 96 % of control

O=C1/C(=C/c2ccccn2)CCc2cc(Cl)ccc21
inactive: dose: 100.0 mg/kg/injection, schedule: Q04DX003 (ip), vehicle: carboxymethylcellulose (CMC) 93 % of control | dose: 200.0 mg/kg/injection, schedule: Q04DX003 (ip), vehicle: carboxymethylcellulose (CMC) 96 % of control | dose: 400.0 mg/kg/injection, schedule: Q04DX003 (ip), vehicle: carboxymethylcellulose (CMC) 96 % of control

CCOC(=O)C[S][Sn]([Cl])([Cl])[S]CC(=O)OCC
inactive: [21] 100 % of control | dose: 200.0 mg/kg/injection, schedule: Q01DX001 (ip), vehicle: saline with Tween-80 92 % of control | dose: 400.0 mg/kg/injection, schedule: Q01DX001 (ip), vehicle: saline with Tween-80 87 % of control

N#Cc1ccnc2ccccc12
inactive: [1] 97 % of control | [3] 97 % of control | [5] 98 % of control

C=CCN1C(=O)c2ccccc2C1=O
inactive: [18] 100 % of control | [15] 95 % of control | dose: 200.0 mg/kg/injection, schedule: Q01DX009 (ip), vehicle: Klucel (hydroxypropylcellulose) (HPC) 100 % of control | [16] 95 % of control | dose: 400.0 mg/kg/injection, schedule: Q01DX009 (ip), vehicle: Klucel (hydroxypropylcellulose) (HPC) 91 % of control | [17] 92 % of control

Nc1ncnc(N)c1NC(=O)C1CCCCC1
inactive: dose: 25.0 mg/kg/injection, schedule: Q01DX001 (ip), vehicle: Klucel (hydroxypropylcellulose) (HPC) 101 % of control | [7] 101 % of control

CC(C)Cn1cnc2c(SCc3ccc(Cl)cc3Cl)nc(N)nc21
inactive: [10] 100 % of control | dose: 100.0 mg/kg/injection, schedule: Q04DX003 (ip), vehicle: acetone 92 % of control | [11] 102 % of control | dose: 200.0 mg/kg/injection, schedule: Q04DX003 (ip), vehicle: acetone 91 % of control | [25] 97 % of control | dose: 400.0 mg/kg/injection, schedule: Q04DX003 (ip), vehicle: acetone 89 % of control
